According to US20200171162A1, “E-POLY-L-LYSINE DERIVATIVES HAVING FUNCTIONAL GROUP FOR CLICK CHEMISTRY, METHOD FOR PRODUCING THE SAME, AND USE THEREOF” (Fukui Prefectural University, priority 2017, published 2020):
Each block holds one compound with its values, some of them ahead of it.

What was measured:
physchem = experiment: physchem
Description: A commercial DBCO-PEG4-5/6-FAM represented by formula (12) (0.5 μmol) and a 9- to 18-mer ε-PL-PEG-azide represented by the general formula (10) (wherein n is an integer of 9 to 18) (1.0 μmol) were dissolved in 80% dimethylsulfoxide (hereinafter referred to as DMSO). The mixture was subjected to a click chemistry reaction while stirred at 30° C. for 24 hours. The reaction mixture was analyzed by ESI-TOF-MS/HPLC as described in Example 1.

HeLa cells = experiment: Biomembrane permeability test using HeLa cells (fluorescence intensity of cell extract); assay type: cell-based; settings: statement for the unmodified dye
Description: The culture of HeLa cells was performed in a Dulbecco's modified Eagle's medium (DMEM) containing 10% fetal bovine serum (FBS) in an atmosphere of 5% carbon dioxide at 37° C. Under such culture conditions, the cells were cultured in 12-well plates until grown to 70 to 80% confluency. The cells were washed twice with DMEM without FBS (DMEM w/o FBS). […] Incubation was performed at 4° C. for 30 minutes. The cells were washed successively with phosphate buffered saline (PBS) twice, with PBS alone or PBS containing heparin (100 μg/mL), and with PBS twice. To the cells, 300 μL of 100 mM Tris-HCl buffer solution (pH 8.0) containing 1% Triton X-100 was added for extraction of the compound taken up by the cells. After removing the insoluble fraction by centrifugation, fluorescence intensity was measured.
The culture of HeLa cells was performed in a Dulbecco's modified Eagle's medium (DMEM) containing 10% fetal bovine serum (FBS) in an atmosphere of 5% carbon dioxide at 370° C. Under such culture conditions, the cells were cultured in 12-well plates until grown to 70 to 80% confluency. The cells were washed twice with DMEM without FBS (DMEM w/o FBS). […] Incubation was performed at 4° C. for 30 minutes. […] After removing the insoluble fraction by centrifugation, fluorescence intensity was measured.

[1] = system: Dox-resistant K562 cells (K562/ADR); experiment: Cytotoxicity (anticancer activity), MTT assay; assay type: cell-based; settings: Homo sapiens, 48 hours
Description: (§1) The culture of K562 cells and K562/ADR cells was performed in an RPMI1640 medium containing 10% fetal bovine serum (FBS) in an atmosphere of 5% carbon dioxide at 37° C. The cells were suspended at 1×10^5 cells/mL in the medium, and 100 μL (1×10^4 cells) of the cell suspension was seeded on each well of 96-well plates and cultured for 24 hours. […] MTT assay was performed to determine cytotoxicity based on viable cell count.

[2] = system: human chronic myelogenous leukemia K562 cells; experiment: Cytotoxicity (anticancer activity), MTT assay; assay type: cell-based; settings: 48 hours
Description: as §1

water solubility (physchem): poorly water-soluble
biomembrane permeability (HeLa cells): no biomembrane permeability
SMILES: O=C(CCOCCOCCOCCOCCNC(=O)c1ccc(-c2c3ccc(=O)cc-3oc3cc(O)ccc23)c(C(=O)O)c1)NCCC(=O)N1Cc2ccccc2C#Cc2ccccc21 [DBCO-PEG4-5/6-FAM]

SMILES: COc1cccc2c1C(=O)c1c(O)c3c(c(O)c1C2=O)C[C@@](O)(C(=O)CO)C[C@@H]3O[C@H]1C[C@H](N)[C@H](O)[C@H](C)O1 [Dox, doxorubicin]
IC50 [1]: 1040 nM
IC50 [2]: 239 ± 72 nM

solubility (physchem; water): < 1080 µM
SMILES: C[C@@H]1[C@H](O)[C@@H](C)/C=C/C=C/C=C/C=C/C=C/C=C/C=C/[C@H](O[C@@H]2O[C@H](C)[C@@H](O)[C@H](N)[C@@H]2O)C[C@@H]2O[C@](O)(C[C@@H](O)C[C@@H](O)[C@H](O)CC[C@@H](O)C[C@@H](O)CC(=O)O[C@H]1C)C[C@H](O)[C@H]2C(=O)O [AmpB, amphotericin B]
